{"source": "patent US20250049708A1", "about": "“A TOPICAL GEL FORMULATION FOR SKIN AND MOUTH DISORDERS AND A PROCESS OF PREPARATION THEREOF” (priority 2021, published 2025)", "format_in_all_cases": "in vivo, male BALB/c mice", "key": {"[1]": {"system": "oral mucositis", "experiment": "anti-mucositis activity (mucositis score) in mice with 5-FU + tongue scratching induced oral mucositis", "details": "score 0-5", "description": "(§1) The in vivo pharmacological assessment of anti-mucositis activity of the topical or oromucosal gel formulation in male BALB/c mice was performed. The study protocol involves six BALB/c mice namely vehicle, 5-Fluorouracil (FU) group, 5 FU-group+Scratching, FU-group+Scratching, FU-group+Scratching+100 ug gel and FU-group+Scratching+30 ug respectively were maintained under specific pathogen-free conditions. The mice were 6-8 weeks of age and weighed 25-30 g. All animal experimental procedures were performed in accordance with the Institutional Animal Ethics Committee (IAEC) guidelines along with approval from IAEC.\nThe activity of misoprostol of the topical or oromucosal gel formulation was analyzed for anti-mucositis in mice. The anti-mucositis activity is analyzed based on the mucositis score. The scoring parameters for anti-mucositis activity include erythema, vasodilation, erosion, bleeding, fibrosis, and ulcers.\nA scoring method is adopted for oral mucositis induced by radiation and chemotherapy. The scoring evaluates the relationship between dosage, delivery method and complications. The Scoring systems are useful in assessing the impact of therapy on patient. […]\nFIG. 5 illustrates the effect of topical or oromucosal gel formulation in mice with oral mucositis. The mucositis score was evaluated for 6 groups of mice (G1-G6) over a period of 15 days."}, "[2]": {"system": "IL-6", "experiment": "tongue and serum IL-6 levels in mice with oral mucositis (mouse IL-6 ELISA kit)", "details": "5-FU + scratch mice", "description": "as §1\n(§2) The anti-mucositis study protocol involves mice that are intraperitoneally administered with 5-FU at 100 mg/kg on day 0. The scratching group of mice was anesthetized with isoflurane and an area of 0.5 cm^2 of the tongue was scratched using the tip of an 18-gauge needle at an equal force and depth on days 7 and 8. […]\n(§3) The levels of biomarkers such as IL-6 and TNF-α were analyzed in mice upon treatment with topical or oromucosal gel formulation. The concentrations of these biomarkers in serum and tongue were analyzed using standard ELISA kits.\nThe tongue and serum concentrations of IL-6 were analyzed in mice with oral mucositis upon treatment with topical or oromucosal gel formulation. The concentrations of IL-6 in tongue and serum were analyzed using mouse IL-6 ELISA kit."}, "[3]": {"system": "TNF-α", "experiment": "tongue and serum TNF-α levels in mice with oral mucositis (mouse TNF-α ELISA kit)", "details": "5-FU + scratch mice", "description": "as §1, §2, §3\nThe tongue and serum concentrations of TNF-α were analyzed in mice with oral mucositis upon treatment with topical or oromucosal gel formulation. The concentrations of TNF-α in tongue and serum were analyzed using mouse TNF-α ELISA kit."}, "[4]": {"experiment": "body weights of mice with oral mucositis over 15 days", "details": "5-FU + scratch mice; period of 15 days", "description": "as §1\nThe anti-mucositis study protocol involves mice that are intraperitoneally administered with 5-FU at 100 mg/kg on day 0. The scratching group of mice was anesthetized with isoflurane and an area of 0.5 cm^2 of the tongue was scratched using the tip of an 18-gauge needle at an equal force and depth on days 7 and 8. The scratching was blinded to the treatment groups. Dexamethasone was administered orally at 1 mg/kg/day from on day 7.\nThe body weights of mice with oral mucositis upon treatment with topical or oromucosal gel formulation were analyzed for a period of 15 days."}}}
{"molecule": "C[C@@H]1C[C@H]2[C@@H]3CCC4=CC(=O)C=C[C@]4(C)[C@@]3(F)[C@@H](O)C[C@]2(C)[C@@]1(O)C(=O)CO", "note": "[Dexamethasone]", "values": [{"measurement": "mucositis score reached in the increase phase", "setting": "[1]; 5-FU 100 mg/kg i.p. day 0 + tongue scratch days 7 and 8, increase till day 8", "result": 3}, {"measurement": "mucositis score after decrease over the remaining days", "setting": "[1]; 5-FU + scratch, end of 15 day period", "result": 1}, {"measurement": "serum IL-6 mean concentration", "setting": "[2]; serum", "result": 6.91}, {"measurement": "tongue IL-6 mean concentration", "setting": "[2]; tongue", "result": 44.20}, {"measurement": "serum TNF-α mean concentration", "setting": "[3]; serum", "result": 3.32}, {"measurement": "tongue TNF-α mean concentration", "setting": "[3]; tongue", "result": 20.07}, {"measurement": "body weight course", "setting": "[4]", "result": "decrease in weight for 8 days and gradually increases over the remaining 7 days"}]}
